± gives the expanded uncertainty stated by the source.
Settings: Liquid; for speed of sound: Pulse-echo method; for mass density: Vibrating tube method

CCCCC/C=C\C/C=C\CCCCCCCC(=O)OC [methyl (Z,Z)-9,12-octadecadienate]
Settings	mass density, 343.15 K [kg/m3]	mass density, 353.15 K [kg/m3]	mass density, 363.15 K [kg/m3]	mass density, 373.15 K [kg/m3]	mass density, 383.15 K [kg/m3]	mass density, 393.15 K [kg/m3]	speed of sound, 343.15 K [m/s]	speed of sound, 363.15 K [m/s]	speed of sound, 383.15 K [m/s]	speed of sound, 393.15 K [m/s]
101.3 kPa	–	841.8 ± 0.6	834.7 ± 0.6	826.5 ± 0.6	819.3 ± 0.6	811.9 ± 0.6	–	1180.3 ± 2.7	1118.2 ± 2.6	1088 ± 2.5
10000 kPa	–	849.3 ± 0.6	842.2 ± 0.6	835.3 ± 0.6	828.2 ± 0.6	820.9 ± 0.6	–	1237 ± 2.8	1178.7 ± 2.7	1150.9 ± 2.6
20000 kPa	–	856.2 ± 0.6	849.5 ± 0.6	842.9 ± 0.6	836.2 ± 0.6	829.3 ± 0.6	–	1288.6 ± 2.9	1233.8 ± 2.8	1207.3 ± 2.7
30000 kPa	–	862.8 ± 0.6	856.4 ± 0.6	849.9 ± 0.6	843.5 ± 0.6	837 ± 0.6	–	1336.6 ± 3	1283.1 ± 2.9	1258.5 ± 2.8
40000 kPa	–	868.9 ± 0.7	862.6 ± 0.7	856.4 ± 0.7	850.2 ± 0.7	844.1 ± 0.7	–	1381.1 ± 3.1	1329 ± 3	1304.7 ± 2.9
50000 kPa	–	874.6 ± 0.7	868.4 ± 0.7	862.4 ± 0.7	856.8 ± 0.7	850.5 ± 0.7	–	1422.6 ± 3.1	1372.3 ± 3	1348.4 ± 3
60000 kPa	–	879.9 ± 0.7	873.9 ± 0.7	868.3 ± 0.7	862.7 ± 0.7	856.7 ± 0.7	–	1462.6 ± 3.2	1413.2 ± 3.1	1389.4 ± 3.1
70000 kPa	–	885.2 ± 0.7	879.1 ± 0.7	873.9 ± 0.7	868.2 ± 0.7	862.4 ± 0.8	–	1500.2 ± 3.3	1452.3 ± 3.2	1428.7 ± 3.1
80000 kPa	895.7 ± 0.7	890 ± 0.7	884.1 ± 0.7	879.3 ± 0.8	873.5 ± 0.8	867.9 ± 0.8	1583.9 ± 3.4	1536.1 ± 3.3	1489.5 ± 3.2	1466.7 ± 3.2
90000 kPa	900.3 ± 0.7	894.7 ± 0.8	889 ± 0.8	884.3 ± 0.8	878.7 ± 0.8	873 ± 0.8	1616.7 ± 3.5	1570.2 ± 3.4	1525.2 ± 3.3	1503.1 ± 3.3
100000 kPa	904.7 ± 0.8	899.3 ± 0.8	893.9 ± 0.8	889.1 ± 0.8	883.9 ± 0.8	878.1 ± 0.8	1648.6 ± 5.2	1602.5 ± 5	1558.2 ± 4.9	1537.7 ± 4.8
110000 kPa	–	–	–	–	–	–	1679 ± 5.2	1634 ± 5.1	1590.3 ± 5	1570 ± 4.9
120000 kPa	–	–	–	–	–	–	1708.5 ± 5.3	1663.9 ± 5.2	1621.1 ± 5.1	1600.8 ± 5
130000 kPa	–	–	–	–	–	–	1736.1 ± 5.4	1693 ± 5.3	1650.8 ± 5.2	1630.7 ± 5.1
140000 kPa	–	–	–	–	–	–	1763.4 ± 5.5	1720.3 ± 5.4	1679.1 ± 5.2	1660.1 ± 5.2
150000 kPa	–	–	–	–	–	–	1789.7 ± 5.6	1747.4 ± 5.4	1707.1 ± 5.3	1688 ± 5.3
170000 kPa	–	–	–	–	–	–	1840.9 ± 5.7	1799.1 ± 5.6	1759.8 ± 5.5	1740.7 ± 5.4
190000 kPa	–	–	–	–	–	–	1889.3 ± 5.8	1847.3 ± 5.7	1808.6 ± 5.6	1790 ± 5.6
210000 kPa	–	–	–	–	–	–	1935.4 ± 6	1894.7 ± 5.9	1855.8 ± 5.7	1838.1 ± 5.7

Source: the NIST ThermoML archive (doi:10.1021/je4005323)
